According to the kinase profiling compilation of Christmann-Franck et al. (2016):

How the values were obtained:
Assay in all cases: KINOMEscan competition binding
Conditions in all cases: compound 10.0 µM
[1] = target: PIK3CG (human) (UniProt P48736)
[2] = target: PTK6 (human) (UniProt Q13882)
[3] = target: BLK (human) (UniProt P51451)
[4] = target: ROCK2 (human) (UniProt O75116)
[5] = target: LIMK2 (human) (UniProt P53671)
[6] = target: PRKD3 (human) (UniProt O94806)
[7] = target: CLK3 (human) (UniProt P49761)
[8] = target: FRK (human) (UniProt P42685)
[9] = target: RPS6KA5 KD2 (human) (UniProt O75582)
Chain of RPS6KA5 KD2 (human) (O75582 whole entry, looked up): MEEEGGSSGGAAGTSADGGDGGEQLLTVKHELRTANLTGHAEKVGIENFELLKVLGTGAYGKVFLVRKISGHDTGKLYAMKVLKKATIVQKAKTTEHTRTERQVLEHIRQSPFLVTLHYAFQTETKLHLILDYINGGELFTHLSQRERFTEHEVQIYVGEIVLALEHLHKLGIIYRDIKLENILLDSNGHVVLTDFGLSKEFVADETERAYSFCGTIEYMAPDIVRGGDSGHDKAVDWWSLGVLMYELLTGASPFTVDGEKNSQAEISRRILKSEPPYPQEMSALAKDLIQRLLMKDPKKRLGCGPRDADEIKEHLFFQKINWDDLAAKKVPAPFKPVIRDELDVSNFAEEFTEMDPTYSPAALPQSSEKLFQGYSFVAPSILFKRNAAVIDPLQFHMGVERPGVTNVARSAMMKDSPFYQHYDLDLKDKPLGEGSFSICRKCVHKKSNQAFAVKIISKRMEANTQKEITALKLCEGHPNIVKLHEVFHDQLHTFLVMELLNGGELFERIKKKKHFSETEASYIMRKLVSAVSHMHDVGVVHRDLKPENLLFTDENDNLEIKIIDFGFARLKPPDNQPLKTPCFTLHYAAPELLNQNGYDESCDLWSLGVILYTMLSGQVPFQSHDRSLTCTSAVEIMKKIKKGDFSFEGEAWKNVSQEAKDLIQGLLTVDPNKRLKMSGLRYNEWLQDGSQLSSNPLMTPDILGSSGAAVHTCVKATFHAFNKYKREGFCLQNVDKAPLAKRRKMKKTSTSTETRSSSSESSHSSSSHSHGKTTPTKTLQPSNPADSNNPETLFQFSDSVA

[10] = target: PIP4K2B (human) (UniProt P78356)
[11] = target: IKBKB (human) (UniProt O14920)
[12] = target: RPS6KA2 KD2 (human) (UniProt Q15349)
[13] = target: STK32B (human) (UniProt Q9NY57)
Chain of STK32B (human) (Q9NY57 whole entry, looked up): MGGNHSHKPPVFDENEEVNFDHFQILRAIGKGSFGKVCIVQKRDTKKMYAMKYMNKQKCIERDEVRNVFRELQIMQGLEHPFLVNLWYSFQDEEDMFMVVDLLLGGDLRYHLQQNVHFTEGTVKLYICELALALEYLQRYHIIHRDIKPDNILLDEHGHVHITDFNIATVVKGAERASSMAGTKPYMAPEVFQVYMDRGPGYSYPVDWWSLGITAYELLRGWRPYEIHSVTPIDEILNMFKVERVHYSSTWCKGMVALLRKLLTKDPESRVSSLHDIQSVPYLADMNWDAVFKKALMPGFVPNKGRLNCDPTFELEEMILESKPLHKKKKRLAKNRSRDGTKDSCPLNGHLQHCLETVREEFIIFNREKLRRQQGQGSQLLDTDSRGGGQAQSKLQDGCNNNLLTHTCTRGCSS

[14] = target: CDKL1 (human) (UniProt Q00532)
[15] = target: MAP2K7 (human) (UniProt O14733)
[16] = tested on: EGFR (human), P00533 [T790M]
[17] = target: MAP2K4 (human) (UniProt P45985)
Chain of MAP2K4 (human) (P45985 whole entry, looked up): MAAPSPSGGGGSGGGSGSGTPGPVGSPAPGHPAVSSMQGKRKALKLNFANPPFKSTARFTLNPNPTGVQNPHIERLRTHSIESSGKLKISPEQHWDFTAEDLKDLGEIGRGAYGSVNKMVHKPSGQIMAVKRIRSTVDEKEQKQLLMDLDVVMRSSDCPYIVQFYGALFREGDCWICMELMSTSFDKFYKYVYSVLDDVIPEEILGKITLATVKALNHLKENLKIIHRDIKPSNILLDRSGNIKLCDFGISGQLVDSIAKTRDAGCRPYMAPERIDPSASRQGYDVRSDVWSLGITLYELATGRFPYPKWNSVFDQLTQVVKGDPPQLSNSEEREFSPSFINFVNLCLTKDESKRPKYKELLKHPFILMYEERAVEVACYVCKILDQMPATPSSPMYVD

[18] = target: EPHA1 (human) (UniProt P21709)
Chain of EPHA1 (human) (P21709 whole entry, looked up): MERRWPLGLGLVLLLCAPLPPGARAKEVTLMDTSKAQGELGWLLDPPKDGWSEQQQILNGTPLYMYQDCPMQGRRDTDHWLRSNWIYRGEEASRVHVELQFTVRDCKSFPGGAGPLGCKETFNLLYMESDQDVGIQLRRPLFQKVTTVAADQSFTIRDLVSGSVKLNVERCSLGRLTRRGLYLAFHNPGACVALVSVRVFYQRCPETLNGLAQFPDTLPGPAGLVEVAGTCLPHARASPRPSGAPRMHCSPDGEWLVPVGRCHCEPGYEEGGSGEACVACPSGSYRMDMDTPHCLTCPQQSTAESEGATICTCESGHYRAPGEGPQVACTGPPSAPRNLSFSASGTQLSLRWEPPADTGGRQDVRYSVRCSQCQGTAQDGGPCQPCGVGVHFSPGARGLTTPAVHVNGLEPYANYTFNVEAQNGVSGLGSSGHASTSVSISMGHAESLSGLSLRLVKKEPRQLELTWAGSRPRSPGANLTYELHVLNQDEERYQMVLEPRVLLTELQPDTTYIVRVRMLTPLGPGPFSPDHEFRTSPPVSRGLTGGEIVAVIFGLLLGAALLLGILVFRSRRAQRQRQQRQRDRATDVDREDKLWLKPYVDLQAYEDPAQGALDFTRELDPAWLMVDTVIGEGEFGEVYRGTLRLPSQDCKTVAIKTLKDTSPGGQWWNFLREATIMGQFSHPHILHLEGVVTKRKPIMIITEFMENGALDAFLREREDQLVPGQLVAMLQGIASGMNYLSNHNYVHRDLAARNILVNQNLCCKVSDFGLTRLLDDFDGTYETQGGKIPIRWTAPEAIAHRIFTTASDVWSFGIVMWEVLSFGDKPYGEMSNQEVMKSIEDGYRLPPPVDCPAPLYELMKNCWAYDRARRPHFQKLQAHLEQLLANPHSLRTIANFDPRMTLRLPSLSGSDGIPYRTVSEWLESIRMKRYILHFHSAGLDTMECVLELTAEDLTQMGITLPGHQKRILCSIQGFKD

[19] = target: RIPK4 (human) (UniProt P57078)
[20] = target: PAK6 (human) (UniProt Q9NQU5)
[21] = target: MARK4 (human) (UniProt Q96L34)
[22] = target: MELK (human) (UniProt Q14680)
Chain of MELK (human) (Q14680 whole entry, looked up): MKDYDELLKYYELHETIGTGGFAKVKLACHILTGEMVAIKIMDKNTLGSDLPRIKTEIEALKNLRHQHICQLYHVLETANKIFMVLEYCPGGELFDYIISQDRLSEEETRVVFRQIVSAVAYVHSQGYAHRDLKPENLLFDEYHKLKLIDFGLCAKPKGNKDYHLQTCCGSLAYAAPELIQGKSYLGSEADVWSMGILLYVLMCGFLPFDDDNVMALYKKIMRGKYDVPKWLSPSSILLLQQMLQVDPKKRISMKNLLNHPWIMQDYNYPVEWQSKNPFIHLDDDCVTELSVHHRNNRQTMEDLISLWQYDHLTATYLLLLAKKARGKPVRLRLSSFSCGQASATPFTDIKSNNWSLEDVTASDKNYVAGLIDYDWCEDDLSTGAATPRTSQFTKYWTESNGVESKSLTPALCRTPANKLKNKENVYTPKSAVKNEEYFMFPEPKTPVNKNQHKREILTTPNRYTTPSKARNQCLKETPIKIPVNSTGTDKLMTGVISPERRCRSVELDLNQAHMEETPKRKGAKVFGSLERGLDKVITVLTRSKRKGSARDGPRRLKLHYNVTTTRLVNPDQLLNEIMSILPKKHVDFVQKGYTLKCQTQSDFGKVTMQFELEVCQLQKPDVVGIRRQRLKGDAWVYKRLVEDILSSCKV

[23] = target: TAOK3 (human) (UniProt Q9H2K8)
[24] = target: CASK (human) (UniProt O14936)
[25] = target: PKMYT1 (human) (UniProt Q99640)
[26] = target: CDK19 (human) (UniProt Q9BWU1)
[27] = target: LATS2 (human) (UniProt Q9NRM7)
[28] = target: ROCK1 (human) (UniProt Q13464)
[29] = target: MST4 (human) (UniProt Q9P289)
[30] = target: SRPK2 (human) (UniProt P78362)
[31] = target: BMPR1B (human) (UniProt O00238)
[32] = target: JAK2 JH1 catalytic (human) (UniProt O60674)
[33] = target: CaMK1 (human) (UniProt Q14012)
[34] = target: PAK3 (human) (UniProt O75914)

Chain of PRKD3 (human) (O94806 whole entry, looked up): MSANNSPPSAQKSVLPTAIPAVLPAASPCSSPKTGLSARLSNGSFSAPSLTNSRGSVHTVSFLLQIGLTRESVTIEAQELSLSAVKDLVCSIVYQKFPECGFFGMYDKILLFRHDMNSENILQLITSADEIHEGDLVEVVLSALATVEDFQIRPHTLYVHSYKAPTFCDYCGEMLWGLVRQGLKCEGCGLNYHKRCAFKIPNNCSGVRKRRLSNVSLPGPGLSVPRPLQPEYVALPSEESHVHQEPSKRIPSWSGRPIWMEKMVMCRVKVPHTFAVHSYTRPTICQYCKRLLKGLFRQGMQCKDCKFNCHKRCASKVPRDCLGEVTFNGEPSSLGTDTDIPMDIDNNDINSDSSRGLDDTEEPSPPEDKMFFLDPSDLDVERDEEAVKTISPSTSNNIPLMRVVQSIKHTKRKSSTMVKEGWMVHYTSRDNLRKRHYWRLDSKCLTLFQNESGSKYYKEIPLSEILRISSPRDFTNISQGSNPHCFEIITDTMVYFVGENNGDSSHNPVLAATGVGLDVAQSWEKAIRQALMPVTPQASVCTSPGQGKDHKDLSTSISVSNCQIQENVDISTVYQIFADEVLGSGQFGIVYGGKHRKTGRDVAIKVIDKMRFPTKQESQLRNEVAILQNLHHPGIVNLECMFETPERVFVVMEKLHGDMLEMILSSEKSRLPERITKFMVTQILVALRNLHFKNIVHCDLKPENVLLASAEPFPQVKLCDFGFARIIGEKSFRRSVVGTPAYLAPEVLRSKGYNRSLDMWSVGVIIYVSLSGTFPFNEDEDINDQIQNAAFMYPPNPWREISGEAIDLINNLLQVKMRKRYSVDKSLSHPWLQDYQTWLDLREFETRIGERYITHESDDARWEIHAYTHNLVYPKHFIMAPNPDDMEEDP
Chain of LIMK2 (human) (P53671 whole entry, looked up): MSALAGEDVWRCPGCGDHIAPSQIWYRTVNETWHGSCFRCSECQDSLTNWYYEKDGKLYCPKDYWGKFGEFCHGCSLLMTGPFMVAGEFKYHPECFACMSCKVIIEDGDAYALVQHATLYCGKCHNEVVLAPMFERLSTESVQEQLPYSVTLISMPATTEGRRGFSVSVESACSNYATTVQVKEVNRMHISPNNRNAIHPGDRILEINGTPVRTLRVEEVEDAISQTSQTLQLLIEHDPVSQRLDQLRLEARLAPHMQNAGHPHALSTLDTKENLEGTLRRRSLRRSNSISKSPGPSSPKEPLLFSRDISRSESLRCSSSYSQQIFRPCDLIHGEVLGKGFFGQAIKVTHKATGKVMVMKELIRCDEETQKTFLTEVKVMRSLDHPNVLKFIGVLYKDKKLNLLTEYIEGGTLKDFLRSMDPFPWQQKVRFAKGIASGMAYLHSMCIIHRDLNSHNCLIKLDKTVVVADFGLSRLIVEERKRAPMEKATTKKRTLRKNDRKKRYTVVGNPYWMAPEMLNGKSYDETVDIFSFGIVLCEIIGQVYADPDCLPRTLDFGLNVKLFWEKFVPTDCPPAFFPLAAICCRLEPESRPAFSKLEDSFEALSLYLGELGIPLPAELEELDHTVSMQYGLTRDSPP

| SMILES | kinase still bound, per cent of control [2] [%] | kinase still bound, per cent of control [4] [%] | kinase still bound, per cent of control [5] [%] | kinase still bound, per cent of control [6] [%] | kinase still bound, per cent of control [9] [%] | kinase still bound, per cent of control [10] [%] | kinase still bound, per cent of control [11] [%] | kinase still bound, per cent of control [13] [%] | kinase still bound, per cent of control [14] [%] | kinase still bound, per cent of control [15] [%] | kinase still bound, per cent of control [17] [%] | kinase still bound, per cent of control [18] [%] | kinase still bound, per cent of control [19] [%] | kinase still bound, per cent of control [20] [%] | kinase still bound, per cent of control [21] [%] | kinase still bound, per cent of control [22] [%] | kinase still bound, per cent of control [23] [%] | kinase still bound, per cent of control [25] [%] | kinase still bound, per cent of control [26] [%] | kinase still bound, per cent of control [27] [%] | also measured |
| --- | --- | --- | --- | --- | --- | --- | --- | --- | --- | --- | --- | --- | --- | --- | --- | --- | --- | --- | --- | --- | --- |
| COc1cc(C(=O)N2CCC(N3CCN(C)CC3)CC2)ccc1Nc1ncc2c(n1)N(C)c1ccccc1C(=O)N2C | 58 | 87 | 100 | 42 | 92 | 100 | 89 | 100 | 78 | 100 | 100 | 100 | 74 | 98 | 78 | 100 | 24 | 80 | 100 | 95 | kinase still bound, per cent of control [1]: 15%; kinase still bound, per cent of control [3]: 97%; kinase still bound, per cent of control [7]: 95%; kinase still bound, per cent of control [8]: 34%; kinase still bound, per cent of control [12]: 7.5%; kinase still bound, per cent of control [16]: 88%; kinase still bound, per cent of control [24]: 85%; kinase still bound, per cent of control [28]: 100%; kinase still bound, per cent of control [29]: 95%; kinase still bound, per cent of control [30]: 100%; kinase still bound, per cent of control [31]: 100%; kinase still bound, per cent of control [32]: 70%; kinase still bound, per cent of control [33]: 55%; kinase still bound, per cent of control [34]: 83% |
| C[C@@H](Oc1cc(-c2cnn(C3CCNCC3)c2)cnc1N)c1c(Cl)ccc(F)c1Cl | 56 | 8 | 4.6 | 3 | 95 | 3.8 | 14 | 100 | 81 | 83 | 93 | 0.85 | 8.2 | 72 | 48 | 47 | 1.4 | 100 | 100 | 56 | kinase still bound, per cent of control [1]: 100%; kinase still bound, per cent of control [8]: 15%; kinase still bound, per cent of control [12]: 28%; kinase still bound, per cent of control [28]: 4%; kinase still bound, per cent of control [29]: 13%; kinase still bound, per cent of control [30]: 46%; kinase still bound, per cent of control [31]: 61%; kinase still bound, per cent of control [32]: 1.4%; kinase still bound, per cent of control [33]: 37%; kinase still bound, per cent of control [34]: 5.8% |
| COCC(=O)NC/C=C/c1ccc2ncnc(Nc3ccc(Oc4ccc(C)nc4)c(C)c3)c2c1 | 100 | 100 | 100 | 83 | 98 | 100 | 100 | 92 | 69 | 100 | 95 | 88 | 100 | 89 | 100 | 92 | 100 | 100 | 0.5 | 100 | kinase still bound, per cent of control [1]: 100%; kinase still bound, per cent of control [3]: 62%; kinase still bound, per cent of control [7]: 100%; kinase still bound, per cent of control [8]: 100%; kinase still bound, per cent of control [24]: 100%; kinase still bound, per cent of control [28]: 100%; kinase still bound, per cent of control [29]: 90%; kinase still bound, per cent of control [30]: 92%; kinase still bound, per cent of control [31]: 74%; kinase still bound, per cent of control [32]: 100%; kinase still bound, per cent of control [33]: 72%; kinase still bound, per cent of control [34]: 70% |
| NC(=O)Nc1cc(-c2cccc(F)c2)sc1C(=O)N[C@@H]1CCCNC1 | 1.4 | 0.2 | 88 | 2.2 | 9 | 0.2 | 2.5 | 1 | 46 | 80 | 2.2 | 1.4 | 0 | 0.35 | 2.2 | 1.4 | 2.9 | 33 | 100 | 2 | kinase still bound, per cent of control [1]: 100%; kinase still bound, per cent of control [3]: 0%; kinase still bound, per cent of control [7]: 62%; kinase still bound, per cent of control [8]: 0.65%; kinase still bound, per cent of control [12]: 1.9%; kinase still bound, per cent of control [16]: 0.05%; kinase still bound, per cent of control [24]: 92%; kinase still bound, per cent of control [29]: 0.15%; kinase still bound, per cent of control [30]: 4.4%; kinase still bound, per cent of control [31]: 0.1%; kinase still bound, per cent of control [32]: 0%; kinase still bound, per cent of control [33]: 2%; kinase still bound, per cent of control [34]: 0.5% |
| CNC(=O)c1cc(Oc2ccc(NC(=O)Nc3ccc(Cl)c(C(F)(F)F)c3)cc2)ccn1 | 100 | 88 | 57 | 67 | 100 | 94 | 100 | 100 | 70 | 88 | 100 | 20 | 92 | 91 | 100 | 100 | 0.8 | 94 | 1.4 | 85 | kinase still bound, per cent of control [3]: 31%; kinase still bound, per cent of control [7]: 91%; kinase still bound, per cent of control [12]: 81%; kinase still bound, per cent of control [24]: 90%; kinase still bound, per cent of control [28]: 74%; kinase still bound, per cent of control [29]: 100%; kinase still bound, per cent of control [30]: 96%; kinase still bound, per cent of control [31]: 98%; kinase still bound, per cent of control [32]: 80%; kinase still bound, per cent of control [33]: 82%; kinase still bound, per cent of control [34]: 40% |
